We go through 4 substances from patent US20140348861A1, “SYNTHETIC PEPTIDES AND RANDOM COPOLYMERS FOR THE TREATMENT OF AUTOIMMUNE DISORDERS” (NATIONAL INSTITUTE OF IMMUNOLOGY, priority 2011, published 2014).

Non-standard residues stand in square brackets, D forms with d. No end group written: not given here. β3hY = N[C@H](CC(=O)O)Cc1ccc(O)cc1; β3hK = NCCCC[C@H](N)CC(=O)O; β3hV = CC(C)[C@H](N)CC(=O)O; β3hA = C[C@H](N)CC(=O)O

In assay [1] the test system is SJL/J mice exhibiting MBP (85-109) induced relapsing remitting form of EAE. Briefly: Therapeutic activity in MBP (85-109) induced relapsing remitting EAE, treatment from day 11. It is filed as in vivo. Conditions: for Therapeutic activity in comparison to GA (Therapeutic activity (Analogs) − Therapeutic activity GA) / Therapeutic activity in comparison to J5 (Therapeutic activity (Analogs) − Therapeutic activity (J5)) / Therapeutic activity = % reduction in cumulative clinical disability score: SJL/J mice, RR EAE; for Therapeutic activity in comparison to GA (Therapeutic activity (Analogs) − Therapeutic activity GA) / Therapeutic activity in comparison to J5 (Therapeutic activity (Analogs) − Therapeutic activity (J5)): 0.1 mg daily for two weeks. A digest of the protocol:
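Female SJL/J mice, 8-10 weeks, immunized s.c. with 0.2 mg MBP (85-109) in CFA plus 200 ng pertussis toxin i.p. on days 0 and 2. Treatment ran from day 11 for two weeks. Clinical disability was scored daily on a 0-6 scale.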

Assay [2] deals with relapsing remitting EAE in SJL/J mice. The assay is described as follows: Prophylactic (pre-treatment) efficacy in relapsing remitting EAE. It counts as in vivo. Conditions: pre-treatment 0.5 mg in IFA; FIG. 2i. As for the experimental part:
(§1) To induce RR EAE or chronic progressive EAE, SJL/J or C57BL6/J mice were immunized subcutaneously with 0.2 mg of MBP (85-109) or 0.1 mg MOG (35-55) emulsified in CFA and 200 ng of pertussis toxin was injected intraperitoneally on day 0 and day 2 so as to permeablize the blood brain barrier. All the animals in various experimental groups were scored daily for clinical disability on a scale of 0-6 where 0=no neurological symptoms, 1=limp tail, 2=weakness of hind limbs or ataxia, 3=incomplete paralysis of hind limbs, 4=complete paralysis of hind limbs, 5=complete paralysis of all four limbs, 6=dead. Diseased animals were provided easy access to food and water.

The subject of another assay is spleenocytes. Briefly: Th1/Th2 cytokine levels in culture supernates of spleenocytes from treatment groups. It is filed as cell-based, mice. As to conditions: spleenocytes at the end of four weeks, FIG. 4; for decrease in IFN-γ levels: stimulated 48 h. As for the experimental part: Levels of various cytokines in culture supernates were determined by sandwich ELISA using multiplex cytokine ELISA kit (Millipore). Briefly, 100 μl of cell culture supernates from various groups were incubated with antibody (against various pro and anti-inflammatory cytokines) coated fluorescent polystyrene beads in 96 well microtiter plates, stained with PE-conjugated secondary antibody, provided in the kit and samples were acquired on […] (Bio-rad).
Effect of a group of analogs comprising analogs viz.
Effect of β^3-homo amino acid containing copolymers viz S101, S102 and S103 on Th1/Th2 cytokine balance was studied in comparison to other copolymers viz. GA, J91, J92, for which culture supernates of spleenocytes grown in the presence of various copolymers, were assayed using ELISA to determine the levels of various cytokines. […] Most noteworthy change was in the levels of IL-2 in the S101, S102 and S103 treated groups, where the levels were brought down by 60-70%.

In another assay the target is T1, HLA DR2 (Homo sapiens, UniProt P01903+P01911).
T1 construct: endogenous in cells; host or cells: MGAR lymphoblastoid B cell line (IHWG, Seattle)
T1 sequence (P01903 26-254): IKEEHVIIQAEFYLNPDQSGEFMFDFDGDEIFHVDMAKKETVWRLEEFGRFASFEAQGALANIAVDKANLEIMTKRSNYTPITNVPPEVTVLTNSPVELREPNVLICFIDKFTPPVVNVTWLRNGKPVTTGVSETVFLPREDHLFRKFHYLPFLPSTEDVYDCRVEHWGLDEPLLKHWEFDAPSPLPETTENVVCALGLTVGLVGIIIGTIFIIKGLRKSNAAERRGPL
T1 sequence (P01911 30-266): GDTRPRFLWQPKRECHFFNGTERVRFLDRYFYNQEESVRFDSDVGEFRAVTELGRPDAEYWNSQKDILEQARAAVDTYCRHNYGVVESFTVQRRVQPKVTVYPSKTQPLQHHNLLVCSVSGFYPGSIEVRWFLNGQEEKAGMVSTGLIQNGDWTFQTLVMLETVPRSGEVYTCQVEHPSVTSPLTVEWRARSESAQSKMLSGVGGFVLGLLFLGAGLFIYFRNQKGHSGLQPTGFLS
Briefly: Inhibition of binding of biotinylated MBP (85-99) to HLA DR2. As to conditions: 5 μM competitor, 0.5 μM biotinylated MBP (85-99); FIG. 3. As for the experimental part: HLA DR2 molecules were affinity purified from MGAR (a lymphoblastoid B cell line expressing HLA DR2 obtained from IHWG, Seattle, Wash. —USA) cell line. Cells were cultured in RPMI 1640 supplemented with 10% FBS, 2 mM glutamine, 50 U/ml penicillin and 50 μg/ml streptomycin. The anti-DR antibody L243 was purchased from Santacruz Biotech.
HLA DR2 was purified to a purity of 90-95% by immunoaffinity purification. Briefly, MGAR cells were detergent solubilized to prepare the membrane fraction which was passed sequentially through sepharose CL-6B, normal mouse serum-affinity-gel, Protein A sepharose CL-4B and L243-protein A sepharose-CL-4B at a flow rate of around 10-11 ml/h. The final eluate was dialyzed against 0.1% deoxycholate, 10 mM Tris-HCl (pH 8.0) and concentrated using centricon concentrators from Millipore. Protein concentration was determined using bicinchoninic acid (BCA) assay (Sigma). The obtained protein fraction was also run on SDS-PAGE gel to confirm identity and purity.
Copolymers (GA, J91, J92, S101 to S109) and peptide analogs (S1-S82) at a final concentration of 5 μM were coincubated with biotinylated MBP (85-99; purchased from Bioconcept Labs Pvt. Ltd. India) at a final concentration of 0.5 μM and HLA DR2 (0.5 μg/sample) molecules for 40 h at 37° C. and transferred to a 96-well microtiter assay plates coated with 1 μg/well purified L243 mAb. Coating of microtiter plates was performed with 100 μl of L243 mAb in PBS for 18 h at 4° C. […] 3,3′,5,5′-tetramethylbenzidine (TMB, substrate for […]) was added to each well and absorbance at 410 nm was recorded on an ELISA reader (TECAN infinite M200).
Ability of analogs viz. […] Most of the analogs designed herein viz.
β^3-homo amino acid containing copolymers viz. […] Copolymers containing β^3-homo amino acids viz.

The conditions of assay [3]: in vivo; cited from earlier work.
The test system of assay [4] is MOG (35-55) induced chronic progressive EAE in C57BL6/J mice. The assay is described as follows: Therapeutic effect in MOG (35-55) induced chronic progressive EAE. It counts as in vivo. Conditions: daily dose of 5 mg/Kg body weight, FIGS. 2e and 2f. As for the experimental part:
as §1
Some analogs viz. […] Dosage kinetic experiments with analog S27 representing the group of analogs comprising viz.

In assay [5] the test system is MOG (35-55) induced chronic EAE in C57BL6/J mice. Briefly: Prophylactic (pre-treatment) efficacy in MOG (35-55) induced chronic EAE. It is filed as in vivo. Conditions: FIGS. 2j and 2k. As for the experimental part: as §1
The test system of assay [6] is MBP (85-109) reactive CD4+ and CD8+ T-cells. Briefly: Recall (proliferative) response of CD4+ and CD8+ T-cells to MBP (85-109) after pre-treatment. It counts as cell-based, mice. An excerpt:
Spleen derived dendritic cells were isolated to >95% purity using plasmacytoid dendritic cell isolation kit from Miltenyi Biotech. Spleenocytes were isolated from spleen of SJL/J mice, minced and passed through a 70 micron cell strainer (BD Falcon) to get a single cell suspension. The resulting spleenocytes were first depleted of CD3+ T cells and CD 49b/pan NK+ cells using LD depletion columns provided in the kit. The CD3 and CD 49b negative cell population was collected, counted and positive selection of CD11c+ dendritic cells was performed on positive selection columns provided in the kit. The CD11c+ population was collected by removing the column from the magnetic stand, stained with trypan blue to check the viability and purity was determined using flow cytometry.
After two weeks spleenocytes were isolated, fractioned into CD4+ and CD8+ T-cells, cultured with MBP (85-109) pulsed spleen derived dendritic cells and assayed for proliferation (^3[H]-thymidine). […] As recall response to MBP (85-109) is a direct measure of frequencies of MBP (85-109) reactive CD4+ or CD8+ T-cells, in the immunized animals.

Where [7] appears, read: synthetic peptides, 0.1 mg daily for two weeks from day 11 post-immunization.

Consider “EKPKVEAYKAAAAPA [Analog J5, reference compound]”, for which, in assay [1], the “Therapeutic activity in comparison to GA (Therapeutic activity (Analogs) − Therapeutic activity GA)” value was found to be 3.957% and the “Therapeutic activity in comparison to J5 (Therapeutic activity (Analogs) − Therapeutic activity (J5))” value was 0%. Further, the “Therapeutic activity = % reduction in cumulative clinical disability score” value (“Therapeutic activity = % reduction” for short) in assay [1] (setting [7]) worked out at 35.29%. For the same substance, the “effect on clinical onset of disease” value in assay [2] is on record as “no effect on clinical onset of disease”. Also, the “change in IL-4 levels” value with spleenocytes is on record as “only a marginal increase”.
“FPFNVPTNIVKVERH (Peptide analog) [scrambled MBP (85-99)]”: in the assay with HLA DR2, the “inhibition of binding of biotinylated MBP (85-99) to HLA DR2” value (from here on “inhibition”) is given as roughly 15%.
As for “Glatiramer Acetate [GA, reference compound]”, in assay [1], the “Therapeutic activity in comparison to GA (Therapeutic activity (Analogs) − Therapeutic activity GA)” value is recorded as 0% and the “Therapeutic activity in comparison to J5 (Therapeutic activity (Analogs) − Therapeutic activity (J5))” value is −3.957%. For the same substance, the “Therapeutic activity = % reduction” value in assay [1] (amino acid copolymers, 0.1 mg daily for two weeks from day 11) turned out to be 27.12%. The “Therapeutic activity = % reduction” value in assay [1] (setting [7]) was determined as 31.3369%. Besides, the “effect on clinical onset of disease” value in assay [2] is on record as “no effect on clinical onset of disease”. Besides, on HLA DR2, the “inhibition” value is reported as roughly 21%. Besides, in the assay with spleenocytes, the “decrease in IFN-γ levels” value is “approximately 70%” and the “rise in IL-4 levels” value is listed as roughly 2 fold. The “success rate in reducing the relapses” value in assay [3] is 30%.
“Kβ^3Vβ^3Eβ^3Aβ^3Yβ^3Kβ^3Aβ^3Aβ^3Aβ^3Aβ^3 ([β3hK][β3hV]X[β3hA][β3hY][β3hK][β3hA][β3hA][β3hA][β3hA]; not fully specified (residue 3); printed as Kβ^3Vβ^3Eβ^3Aβ^3Yβ^3Kβ^3Aβ^3Aβ^3Aβ^3Aβ^3) [Analog S27]”: in assay [1] (FIG. 2b), the “duration of effect once the treatment is stopped” value is “up to two weeks”. Besides, in assay [1], the “Therapeutic activity in comparison to GA (Therapeutic activity (Analogs) − Therapeutic activity GA)” value is reported as 33.8% and the “Therapeutic activity in comparison to J5 (Therapeutic activity (Analogs) − Therapeutic activity (J5))” value is on record as 29.84%. In addition, the “efficacy relative to GA” value in assay [1] (both treatment and pre-treatment scenarios) is on record as “approximately two times better”. In assay [1] (dosage kinetic experiments, rodents, FIGS. 2c and 2d), this substance registered an optimum daily dosage of 5 mg/kg body weight. In assay [1] (setting [7]), the “Therapeutic activity = % reduction” value came to 65.13%. The “reduction in clinical disability score” value in assay [4] is roughly 60%. In addition, the “delay of clinical onset of disease” value in assay [2] is roughly 3 days. In assay [5], the suppression after pre-treatment is on record as 55-60%. Besides, the “inhibition” value in the assay with HLA DR2 is on record as “approximately 60%”. Besides, in assay [6] (0.5 mg in IFA a day before immunization, spleenocytes after two weeks, FIG. 1a), the “recall response to MBP (85-109), CD4+ T-cell fraction (3[H]-thymidine proliferation)” value is “considerable suppression”. In addition, the “recall response to MBP (85-109), CD8+ T-cell fraction, suppression compared to J5 or GA treated group” value in assay [6] (0.5 mg in IFA a day before immunization, spleenocytes after two weeks, FIG. 1b) is on record as “much more pronounced”. Also, the “recall response to purified protein derivative (PPD)” value in assay [6] (specificity control antigen, FIGS. 1a and b) is reported as “remained unaffected”. In the assay with spleenocytes, the “decrease in IFN-γ levels” value is listed as “approximately 70%” and the “change in IL-4 levels” value is “only a marginal increase”.
